According to US20040081712A1, “Substance for treatment of non-insulin dependent diabetes mellitus, hypertension and/or the metabolic syndrome” (priority 2001, published 2004):
“Also recorded” adds a separate entry of the source.

Legend:
hamsters [1] = settings: cited from earlier work
[2] = system: Salmonella typhimurium strains; settings: cited from earlier work
rats [3] = experiment: intravenous administration to rats; settings: rat, in vivo
[4] = another study; cited from earlier work
mice = settings: mouse, in vivo; cited from earlier work
rats [5] = settings: rat, in vivo; cited from earlier work
isolated mouse islets = experiment: insulin secretion from isolated mouse islets; assay type: cell-based; settings: for glucose-stimulated insulin secretion: 16.7 mmol/l, 10^−9-10^−3 mol/l; for maximal stimulatory dose: NMRI mouse islets
Protocol: Islet from 6-10 NMRI mice were isolated and incubated in the presence of 16.7 mmol/l and 10^−9-10^−3 mol/l stevioside or 10^−9-10^−3 mol/l steviol. The results of these tests are illustrated in FIGS. 4a and 4b where each column represents mean±SEM from 24 incubations of single islets. Black bars in FIG. 4a indicate that stevioside is present and hatched bars indicate that stevioside is absent. Grey bars in FIG. 4b indicate that steviol is present and hatched bars indicate that steviol is absent. The influence of the maximal stimulatory doses of 10^−3 mol/l stevioside and 10^−6 mol/l steviol was studied in NMRI mouse islets over a range between 0 and 16.7 mmol/l glucose. […] Black bars in FIG. 7a indicate that stevioside is present and hatched bars indicate that stevioside is absent. Grey bars in FIG. 7b indicate that steviol is present and hatched bars indicate that steviol is absent.

F344 rats = settings: cited from earlier work
GK rats [6] = experiment: blood pressure during 6 weeks treatment of GK rats; assay type: in vivo, rat; settings: 0.025 g/kg body weight/24 h in drinking water
Protocol: GK rats were treated with stevioside 0.025 g/kg body weight/24 h for 6 weeks. Stevioside was administered in the drinking water. GK rats receiving drinking water with 0.111 g D-glucose/kg body weight/24 h served as controls. Systolic (FIG. 6a, control: O-O series, stevioside-treated: {circle over (2)}-{circle over (2)} series) and diastolic (FIG. 6b, control: O-O series, stevioside-treated: {circle over (2)}-{circle over (2)} series) blood pressures were measured on the tail.

[7] = rats; cited from earlier work
hamsters [8] = settings: doses as high as 2.5 g/kg body weight/day; cited from earlier work
[9] = system: isolated normal pancreatic rat islets; settings: 7 mmol/l D-glucose, 1,0 mmol/l; cited from earlier work
[10] = system: type II diabetic patients; experiment: acute paired cross-over test meal study; assay type: in vivo, human; settings: 1 g orally with standard meal
Source text: Twelve type II diabetic patients (4 female/8 males) with a mean age of 65.8±1.6 years, a diabetes duration of 6.0±1.3 years, a mean body mass index of 28.5±1.0, and a mean glycated hemoglobin HbAlc of 7.4+0.4 percent were included in the study. The experiment was an acute, paired, cross-over study in which two test meals were served during the experiments (A: Standard meal supplemented with 1 g of stevioside given orally; B: Standard meal given together with 1 g of gelatine (placebo) given orally. The total energy content of the test meals was 1725 kJ (protein 16 E %, fat 30 E %, carbohydrate 54 E %). Blood samples were drawn from an antecubital vein 30 minutes before and 240 minutes after ingestion of the test meal. The arterial blood pressure was continuously monitored during the experiment. Students paired t-test was used for comparing the effects of stevioside with placebo on the parameters measured. Data are given as mean±SEM.

Goto-Kakizaki rats = experiment: four-week test diets with glucose tolerance test in Goto-Kakizaki rats; assay type: in vivo, rat
Protocol: In the following example is the term “Soy” defined as a composition comprising 65 weight-% soy protein, at least 0.2 weight-% isoflavones and 18 weight-% soy dietary fibres, mostly cotyledon fibres. “Altromin” is a standard carbohydrate rich laboratory animal diet.” Four test diets, A, B, C and D as defined below, were administered for four weeks to four groups of adult rats. A: Altromin; n=12 (Alt). B: Altromin supplemented with stevioside; n=12; (Alt+Ste). C: 80% Soy plus 20% Altromin; n=12; (Soy). D: 80% Soy plus 20% Altromin plus stevioside; n=12; (Soy+Ste) Each experimental group consisted of twelve female Goto-Kakizaki with an age of 9 weeks. The rats received the stevioside (0.025 g/kg body weight/day) with the drinking water. By the end of the third experimental week intra-arterial catheters were implanted into the carotid artery thereby enabling blood sampling during a 240 minutes glucose-tolerance test which was carried out by the end of the experiment at week 4. Blood samples were drawn after a bolus infusion of 2.0 g D-glucose/kg body weight. Plasma concentrations of glucose, insulin, and glucagon were measured during the glucose tolerance test. Immediately before the glucose tolerance test fasting levels of triglycerides and cholesterol were determined. Concomitantly, the systolic blood pressure was measured using a tail cuff. (Plasma glucose was measured using MPR 3, 166 391, Glucose/GOD-PAP Method from Boehringer Mannheim) (Plasma insulin was measured using Sensitive Rat Insulin RIA, Cat # SRI-13K from Linco) (Plasma glucagon was measured using Glucagon RIA, Cat # GL-32K from Linco) (Blood pressure was measured using TSE Non-Invasive Blood Pressure Monitoring System from Technical Scientific Equipment GmbH) (Plasma cholesterol was measured GOD-PAP from Roche and triglycerides was measured using GHOD-PAP from Roche)

[11] = isolated perfused rat liver; cited from earlier work
[12] = system: spontaneously hypertensive rats; settings: intravenously 200 mg/kg; cited from earlier work
[13] = stevioside infusion at normal blood glucose; assay type: in vivo; settings: bolus or constant intravenous infusion
GK rats [14] = experiment: i.v. glucose tolerance test in GK rats; assay type: in vivo, rat
Protocol: In the following examples, the type II diabetic Goto-Kakizaki (GK) rats originated from Takeda Chemical Ind., Tokyo, Japan and were bred locally.
As examples of the effects of a compound including the chemical formulas II, stevioside was tested on normal Wistar rats and on GK rats. 2.0 g glucose/kg body weight and 0.2 g stevioside/kg body weight were dissolved in 0.9% saline and infused intravenously. The plasma glucose and insulin levels were measured over a period of 2 hours.
The results are shown in FIGS. 2a, 2b, 3a and 3b, were the O-O series (n=6 for Wistar and n=14 for GK) illustrate glucose infused alone and the {circle over (2)}-{circle over (2)} series (n=6 for Wistar and n=12 for GK) illustrate the combined glucose and stevioside infusion. Data are given as mean±SEM.
During a glucose tolerance test, an intravenous bolus of stevioside of 0.2 g/kg body weight was injected in GK rats (the {circle over (2)}-{circle over (2)} serie (n=6)). GK rats receiving 0.9% saline intravenously served as controls (the O-O serie (n=6)). Glucose 2.0 g/kg body weight was administered as a bolus at timepoint 0 min. The plasma glucagon responses are shown as mean±SEM in FIGS. 5a (control) and 5b (GK). The plasma glucagon was suppressed in the stevioside treated GK rat.

For `C=C1C[C@@]23CC[C@H]4[C@@](C)(CCC[C@@]4(C)C(=O)O)[C@@H]2CC[C@]1(O)C3` [steviol], the LD50 (hamsters [1]; hamster, in vivo) is listed as 5-6 g/kg body weight, the “pathology accompanying lethal dose” value (hamsters [1]; hamsters) is listed as “degeneration of the proximal tubular cells” and the mutagenic effect [2] is listed as “no mutagenic effect”. The “effect when administered intravenously to rats” value (rats [3]) was “anti-hyperglycemic, glucagonostatic and insulinotropic effect”, the mutagenicity [4] was “dose-related positive responses” and the LD50 (mice) was “higher than 15 g/kg body weight”. The LD50 (rats [5]) was “higher than 15 g/kg body weight”, the “stimulation of insulin secretion, steviol compared with stevioside” value (isolated mouse islets) was “stimulate the insulin secretion to a greater extent” and the glucose-stimulated insulin secretion (isolated mouse islets) was “capable of potentiating glucose-stimulated insulin secretion”. The maximal stimulatory dose (isolated mouse islets) was 10^−6 mol/l.
In the case of `C=C1C[C@@]23CC[C@H]4[C@@](C)(CCC[C@@]4(C)C(=O)O[C@@H]4O[C@H](CO)[C@@H](O)[C@H](O)[C@H]4O)[C@@H]2CC[C@]1(O[C@@H]1O[C@H](CO)[C@@H](O)[C@H](O)[C@H]1O[C@@H]1O[C@H](CO)[C@@H](O)[C@H](O)[C@H]1O)C3` [stevioside], the mutagenic effect [2] is listed as “no mutagenic effect”, the “effect when administered intravenously to rats” value (rats [3]) is listed as “anti-hyperglycemic, glucagonostatic and insulinotropic effect” and the carcinogenicity (F344 rats) is listed as “not carcinogenic”. The mutagenicity [4] was “not mutagenic”, the “time of treatment after which decrease in blood pressure was detectable” value (GK rats [6]) was 2 weeks and the “decrease in the blood pressure” value (GK rats [6]; 6 weeks, systolic and diastolic, tail) was 10-15%. For the same compound, the route of excretion [7] was “excreted by the urine”, the “effect on growth or reproduction” value (hamsters [8]) was “no effect on growth or reproduction” and the insulin output [9] was “significant increase in insulin output”. The “absolute IAUC postprandial blood glucose” value [10] was 522±64 mmol/l x 240 min, the “insulin response (IAUC)” value [10] was “the difference did not reach statistical significance” and the postprandial glucagon levels [10] was 281±33. The “reduction of postprandial blood glucose response compared to placebo” value [10] was 18±5%, the “area under the plasma-glucagon response curve, in words” value (Goto-Kakizaki rats; both Altromin and soy groups) was “significantly reduced” and the “area under the glucose response curve, in words” value (Goto-Kakizaki rats; glucose tolerance test) was “reduced the incremental area (IAUC) under the glucose response curve”. The “first phase insulin response, in words” value (Goto-Kakizaki rats; glucose tolerance test) was “significantly improved the first phase insulin responses”, the “insulin response curve 0 to 240 minutes, in words” value (Goto-Kakizaki rats; glucose tolerance test) was “did not alter the insulin responses” and the “fasting triglyceride levels, in words” value (Goto-Kakizaki rats; rat, in vivo) was “significant suppression of the fasting triglyceride levels”. For the same compound, the “suppression of the systolic blood pressure (Δ)” value (Goto-Kakizaki rats; stevioside in combination with Altromin) was −28 mmHg, the “suppression of the systolic blood pressure (Δ)” value (Goto-Kakizaki rats; stevioside in combination with soy) was −21 mmHg and the metabolism [11] was “not metabolised”. The “fall in the systolic blood pressure” value [12] was “only small”, the hypoglycemia [13] was “did not cause any hypoglycemia” and the glucose-stimulated insulin secretion (isolated mouse islets) was “capable of potentiating glucose-stimulated insulin secretion”. The maximal stimulatory dose (isolated mouse islets) was 10^−3 mol/l, the “time after which significant decrease of plasma glucose was observed” value (GK rats [14]; 2.0 g glucose/kg + 0.2 g stevioside/kg i.v.) was 30 min and the plasma glucose response (GK rats [14]; 2.0 g glucose/kg + 0.2 g stevioside/kg i.v., 2 hours) was “inhibited blood glucose responses; also recorded: diminished glucose response”. The plasma insulin response (GK rats [14]; 2.0 g glucose/kg + 0.2 g stevioside/kg i.v., compared to the Wistar rat) was “pronounced increase in the insulin response” and the plasma glucagon response (GK rats [14]; i.v. bolus 0.2 g/kg, glucose 2.0 g/kg) was “suppressed”.
